This note sets out measurements from patent publication US20250084063A1 (Incyte Corporation, priority 2023, published 2025).

Holding throughout (type): cell-based
For assay [1], the target named is T1, MRGPRX2 (Homo sapiens, UniProt Q96LB1).
T1 sequence (Q96LB1 1-330): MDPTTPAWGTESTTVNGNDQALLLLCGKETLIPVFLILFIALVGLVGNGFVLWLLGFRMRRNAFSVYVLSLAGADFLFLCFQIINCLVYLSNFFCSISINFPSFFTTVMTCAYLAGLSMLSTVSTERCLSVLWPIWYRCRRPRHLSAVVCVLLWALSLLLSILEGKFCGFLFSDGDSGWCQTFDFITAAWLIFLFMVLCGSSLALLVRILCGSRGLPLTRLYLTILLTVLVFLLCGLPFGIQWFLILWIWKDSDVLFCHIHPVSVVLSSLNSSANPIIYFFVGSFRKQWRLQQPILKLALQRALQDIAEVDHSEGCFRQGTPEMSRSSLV
Description: MRGPRX2 β-Arrestin assay. The note with it: PathHunter CHO-K1 MRGPRX2 β-Arrestin cell line; agonist Cortistatin 14 0.25 μM. Further details: host or cells: PathHunter CHO-K1. In a few lines:
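PathHunter CHO-K1 cells expressing ProLink-tagged MRGPRX2 and enzyme-acceptor-tagged β-arrestin were preincubated with serially diluted compound 1 h at 37 °C, then stimulated with 0.25 μM cortistatin 14 (final) for 90 min. β-arrestin recruitment was read by luminescence; IC50 from 3- or 4-parameter Hill fits normalised to DMSO and reference antagonist controls.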

Assay [2] deals with T1, MRGPRX2. Description: MRGPRX2 IP1 HTRF assay. Further details: host or cells: CHO-K1. The conditions noted are these: CHO-K1 cells stably expressing human MRGPRX2; IP1 accumulation, agonist Cortistatin 14 1 μM. (In TR-FRET formats the signal depends on donor and acceptor labels being close together.)
The target of assay [3] is T1, MRGPRX2. As to the kind of experiment: MRGPRX2 FLIPR calcium mobilization assay. Further details: host or cells: CHO-K1. The conditions noted are these: CHO-K1 cells stably expressing human MRGPRX2; Ca2+ release, agonist Cortistatin-14 at EC80. In a few lines: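 CHO-K1 cells stably expressing human MRGPRX2, loaded with Calcium 6 dye, pre-incubated 30 min at room temperature with test compound in HBSS/20 mM HEPES pH 7.4. Then challenged with Cortistatin-14 at EC80; baseline-adjusted peak fluorescence over 110 s fitted to a Hill equation for IC50.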

In the case of `CNC(=O)N1CCC(CNc2cc(C(F)(F)F)nc3ccc(Cl)cc23)(c2ccc(F)cn2)C1` (stereo not drawn) [Example 49, 3-(((6-Chloro-2-(trifluoromethyl)quinolin-4-yl)amino)methyl)-3-(5-fluoropyridin-2-yl)-N-methylpyrrolidine-1-carboxamide], the IC50 on MRGPRX2 [1], on MRGPRX2 [2] and on MRGPRX2 [3] was 0.1 to 100 nM in each case.
For the compound `CNC(=O)N1CC(CNc2cc(C(F)(F)F)nc3ccc(Cl)cc23)(n2cccn2)C1` [Example 52, 3-(((6-Chloro-2-(trifluoromethyl)quinolin-4-yl)amino)methyl)-N-methyl-3-(1H-pyrazol-1-yl)azetidine-1-carboxamide], the IC50 at MRGPRX2 [1], on MRGPRX2 [2] and on MRGPRX2 [3] was 0.1 to 100 nM in each case.
In the case of `Fc1ccc(C2(CNc3cc(C(F)(F)F)nc4ccc(Cl)cc34)COCCO2)cc1` (stereo not drawn) [Example 53, 6-Chloro-N-((2-(4-fluorophenyl)-1,4-dioxan-2-yl)methyl)-2-(trifluoromethyl)quinolin-4-amine], the 50% inhibitory concentration (IC50) on MRGPRX2 [1], at MRGPRX2 [2] and on MRGPRX2 [3] was 0.1 to 100 nM in each case.
With `NC(=O)N1CC(CNc2cc(C(F)(F)F)nc3cc(F)ccc23)(c2ccc(F)cn2)C1` [Example 59, 3-(((7-Fluoro-2-(trifluoromethyl)quinolin-4-yl)amino)methyl)-3-(5-fluoropyridin-2-yl)azetidine-1-carboxamide], the IC50 on MRGPRX2 [1] fell in the range of 100 to 1000 nM; on MRGPRX2 [2] it was 100 to 1000 nM; at MRGPRX2 [3], 0.1 to 100 nM.
`Nc1ccc(N2CCC(CNc3cc(C(F)(F)F)nc4ccc(Cl)cc34)(c3ccccc3)CC2)nn1` [Example 78, N-((1-(6-Aminopyridazin-3-yl)-4-phenylpiperidin-4-yl)methyl)-6-chloro-2-(trifluoromethyl)quinolin-4-amine]: the IC50 at MRGPRX2 [1], on MRGPRX2 [2] and on MRGPRX2 [3] was 0.1 to 100 nM in each case.
`NS(=O)(=O)N1CC(CNc2cc(C(F)(F)F)nc3ccc(Cl)cc23)(c2ccc3ccccc3n2)C1` [Example 80, 3-(((6-Chloro-2-(trifluoromethyl)quinolin-4-yl)amino)methyl)-3-(quinolin-2-yl)azetidine-1-sulfonamide]: the IC50 was 100 to 1000 nM at MRGPRX2 [1], 100 to 1000 nM on MRGPRX2 [2] and 0.1 to 100 nM on MRGPRX2 [3].
Turning to `Cc1csc(C2(CNc3cc(C(F)(F)F)nc4ccc(Cl)cc34)CN(S(N)(=O)=O)C2)n1` [Example 81, 3-(((6-Chloro-2-(trifluoromethyl)quinolin-4-yl)amino)methyl)-3-(4-methylthiazol-2-yl)azetidine-1-sulfonamide], the values for the half-maximal inhibitory concentration (IC50) at MRGPRX2 [1], at MRGPRX2 [2] and on MRGPRX2 [3] were 0.1 to 100 nM, 100 to 1000 nM and 0.1 to 100 nM, respectively.
For the compound `Cn1ncc2cc(C3(CNc4cc(C(F)(F)F)nc5ccc(Cl)cc45)CN(S(N)(=O)=O)C3)ccc21` [Example 82, 3-(((6-Chloro-2-(trifluoromethyl)quinolin-4-yl)amino)methyl)-3-(1-methyl-1H-indazol-5-yl)azetidine-1-sulfonamide], the IC50 at MRGPRX2 [1] was 0.1 to 100 nM; on MRGPRX2 [2], 100 to 1000 nM; on MRGPRX2 [3], 0.1 to 100 nM.
As for `CNC(=O)N1CC(CNc2cc(C(F)(F)F)nc3ccc(Cl)cc23)(c2ccc3cnn(C)c3c2)C1` [Example 83], the half-inhibitory concentration (IC50) on MRGPRX2 [1] was 100 to 1000 nM; at MRGPRX2 [2] it was 100 to 1000 nM; on MRGPRX2 [3] it was 0.1 to 100 nM.
As to `Cn1ncc2ccc(C3(CNc4cc(C(F)(F)F)nc5ccc(Cl)cc45)CN(S(N)(=O)=O)C3)cc21` [Example 84, 3-(((6-Chloro-2-(trifluoromethyl)quinolin-4-yl)amino)methyl)-3-(1-methyl-1H-indazol-6-yl)azetidine-1-sulfonamide], the IC50 on MRGPRX2 [1] was in the range of 0.1 to 100 nM; on MRGPRX2 [2] it was 100 to 1000 nM; on MRGPRX2 [3] it was 0.1 to 100 nM.
With `CNC(=O)N1CC(CNc2cc(C(F)(F)F)nc3ccc(Cl)cc23)(n2cc(Cl)cn2)C1` [Example 98, 3-(4-Chloro-1H-pyrazol-1-yl)-3-(((6-chloro-2-(trifluoromethyl)quinolin-4-yl)amino)methyl)-N-methylazetidine-1-carboxamide], the IC50 on MRGPRX2 [1], at MRGPRX2 [2] and on MRGPRX2 [3] was 0.1 to 100 nM each time.
In the case of `CNC(=O)N1CC(CNc2cc(C(F)(F)F)nc3ccc(Cl)cc23)(n2cc(Br)cn2)C1` [Example 99, 3-(4-Bromo-1H-pyrazol-1-yl)-3-(((6-chloro-2-(trifluoromethyl)quinolin-4-yl)amino)methyl)-N-methylazetidine-1-carboxamide], the concentration for half-maximal inhibition (IC50) at MRGPRX2 [1], on MRGPRX2 [2] and on MRGPRX2 [3] was 0.1 to 100 nM each time.
`O=C(NC1CC(O)C1)N1CC(CNc2cc(C(F)(F)F)nc3ccc(Cl)cc23)(n2cc(F)cn2)C1` (stereo not drawn) [Example 106, 3-(((6-Chloro-2-(trifluoromethyl)quinolin-4-yl)amino)methyl)-3-(4-fluoro-1H-pyrazol-1-yl)-N-(3-hydroxycyclobutyl)azetidine-1-carboxamide]: the concentration for half-maximal inhibition (IC50) on MRGPRX2 [1], at MRGPRX2 [2] and at MRGPRX2 [3] was 0.1 to 100 nM each time.
In the case of `O=C(NC1CCC1)N1CC(CNc2cc(C(F)(F)F)nc3ccc(Cl)cc23)(n2cc(F)cn2)C1` [Example 107, 3-(((6-Chloro-2-(trifluoromethyl)quinolin-4-yl)amino)methyl)-N-cyclobutyl-3-(4-fluoro-1H-pyrazol-1-yl)azetidine-1-carboxamide], the concentration for half-maximal inhibition (IC50) at MRGPRX2 [1], on MRGPRX2 [2] and at MRGPRX2 [3] was 0.1 to 100 nM throughout.
With `O=C1NC(=O)C2(CC(CNc3cc(C(F)(F)F)nc4ccc(Cl)cc34)(c3ccccc3)C2)N1` (stereo not drawn) [Example 108, 2-(((6-Chloro-2-(trifluoromethyl)quinolin-4-yl)amino)methyl)-2-phenyl-5,7-diazaspiro[3.4]octane-6,8-dione], the IC50 at MRGPRX2 [1], at MRGPRX2 [2] and on MRGPRX2 [3] was 0.1 to 100 nM in each case.
Take `[2H]C([2H])([2H])NC(=O)N1CC(CNc2cc(C(F)(F)F)nc3ccc(Cl)cc23)(n2ccc(F)n2)C1` [Example 109, 3-(((6-Chloro-2-(trifluoromethyl)quinolin-4-yl)amino)methyl)-3-(3-fluoro-1H-pyrazol-1-yl)-N-(methyl-d3)azetidine-1-carboxamide]: the half-inhibitory concentration (IC50) at MRGPRX2 [1], at MRGPRX2 [2] and on MRGPRX2 [3] was 0.1 to 100 nM in each case.

One may read the IC50 as the concentration at which inhibition is half-maximal.
